Reference: patent publication US20120178786A9, “Use of tetramic acid derivatives for controlling pests by drenching, drip application, or dip application” (priority 2006, published 2012)

How the values were obtained:
Type in all cases: in vivo
Aphis craccivora = test: Example 3: drench of violet plants, Henderson-Tilton efficacy against nymphs; details: 12 mg active substance/1 potting compost, 240 SC
Experimental: Violet plants cv. “Ladies delight” (approximate height 15 cm) in 4-inch pots which had been infected with Aphis craccivora two weeks before the treatment are drenched, in four replications, with an active substance solution containing the active substance I-4 (cis isomer, formulation: 240 SC) and, by way of comparison, with the commercial standard imidacloprid (240 SC) at the application rate stated. The greenhouse temperature is 27-33° C. The test is evaluated 7, 14, 22 and 35 days after the treatment by determining the activity against nymphs on the leaves with the aid of the Henderson-Tilton method.

[1] = tested on: Frankliniella occidentalis (FRANOC); test: Example 6: drench of verbena plants, Henderson-Tilton efficacy against nymphs; details: 12 mg active substance/1 potting compost, 240 SC
Experimental: Verbena plants (approximate height 13 cm) in 6-inch-pots which are infected with Frankliniella occidentalis (FRANOC) are drenched, in four replications, with an active substance solution containing the active substance I-4 (cis isomer, formulation: 240 SC) and, by way of comparison, with the commercial standard imidacloprid (240 SC) at the application rate stated. The greenhouse temperature is 27-33° C. The test is evaluated 7, 14, 21 and 28 days after the treatment by determining the activity against nymphs on the leaves with the aid of the Henderson-Tilton method.

Thrips palmi = test: Example 7: drench of cucumber plots, Abbott efficacy; details: 20 mg active substance/plant, two applications at 10-day interval, I-4 240 SC, imidacloprid 100 SL
Experimental: Plots approximately 5 m^2 in size and containing cucumber plants are drenched, in three replications, against Thrips palmi with an active substance solution containing the active substance I-4 (cis isomer, formulation: 240 SC) and, by way of comparison, with the standard imidacloprid (100 SL) at the application rate stated, corresponding to an approximate water application rate of 300 l/ha. Two applications are effected at a 10-day interval. The test is evaluated in each case 9 days after the first treatment and 7 and 13 days after the second treatment by determining the efficacy with the aid of Abbott's formula.

[2] = tested on: Bemisia argentifolii (BEMIAR); test: Example 8: drench of tropical sage plants, Henderson-Tilton efficacy against nymphs; details: 12 mg active substance/1 potting compost, 240 SC
Experimental: Tropical sage plants cv. “scarlet sage” (approximate height 29 cm) in 6-inch pots and infested with Bemisia argentifolii (BEMIAR) are drenched, in three replications, with an active substance solution containing the active substance I-4 (cis isomer, formulation: 240 SC) and, by way of comparison, with the commercial standard imidacloprid (240 SC) at the application rate stated. The greenhouse temperature is 27-33° C. The test is evaluated 9, 13, 20, 34 and 41 days after the treatment by determining the activity against nymphs on the leaves with the aid of the Henderson-Tilton method.

[3] = tested on: Trialeurodes vaporarium (TRIAVA); test: Example 10: drip application to tomato plants on rock wool, Abbott efficacy; details: 20 mg active substance/plant, 100 OD, three treatments
Experimental: In each case 12 tomato plants cv. “Briljant” on rock wool are treated, in four replications, with a drip application against Trialeurodes vaporarium (TRIAVA) with an active substance solution containing the active substance I-4 (cis isomer, formulation: 100 OD) in comparison with the commercial standard imidacloprid (70 WG) at the application rate stated. The greenhouse temperature is 20° C. Three treatments are carried out at intervals of seven and fourteen days. The test is evaluated 14, 21, 28, 36 and 43 days after the 1st treatment by determining the efficacy with the aid of Abbott's formula.

Coccus viridis = test: Example 11: drench of gardenia plants, Henderson-Tilton efficacy against nymphs; details: 24 mg active substance/1 potting compost, 240 SC
Experimental: Gardenia plants cv. […] The greenhouse temperature is 27° C. The test is evaluated 7, 15, 21 and 35 days after the treatment by determining the activity against nymphs on the leaves with the aid of the Henderson-Tilton method.

[4] = tested on: citrus mealybug Pseudococcus citri (PSECCI); test: Example 12: drench of Coleus plants, Abbott efficacy; details: 24 mg active substance/1 potting compost, 240 SC
Experimental: Coleus plants (approximate height 29 cm) in 6-inch pots which have been infected approximately 4 weeks before the treatment with citrus mealybug Pseudococcus citri (PSECCI) are drenched, in three replications, with an active substance solution containing the active substance I-4 (cis isomer, formulation: 240 SC) and, by way of comparison, with the commercial standard imidacloprid (240 SC) at the application rate stated. The greenhouse temperature is 29° C. The test is evaluated 7, 14, 21 and 28 days after the treatment by determining the efficacy with the aid of Abbott's formula.

[5] = tested on: Madeira mealybug (Phenacoccus madeirensis); test: Example 13: drench of Coleus plants, Abbott efficacy; details: 12 mg active substance/1 potting compost, 240 SC
Experimental: Coleus plants (approximate height 29 cm) in 6-inch pots which have been infected approximately 4 weeks before the beginning of the experiment with Madeira mealybug (Phenacoccus madeirensis) are drenched, in three replications, with an active substance solution containing the active substance I-4 (cis isomer, formulation: 240 SC) and, by way of comparison, with the commercial standard imidacloprid (240 SC) at the application rate stated. The greenhouse temperature is 29° C. The test is evaluated 7, 14, 21 and 28 days after the treatment by determining the efficacy with the aid of Abbott's formula.

Bemisia sp. = test: Example 15: drench of bell pepper plots, kill rate of larvae on the leaves; details: 40 + 5 + 5 mg/plant, 240 SC
Experimental: Plots approximately 2×5 m in size which contain bell pepper plants are treated, in three replications, against Bemisia sp. The active substance example (I-4) cis isomer (240 SC) is drenched in an active substance solution at the application rate stated. The water application rate is 700 l/ha. Three treatments are carried out at intervals of 7 and 14 days. The test is evaluated in each case 7, 14, 21 and 28 days after the 3rd treatment by scoring the kill rate of the larvae on the leaves.

**Q.** What does the source list for `CCOC(=O)OC1=C(c2cc(C)ccc2C)C(=O)N[C@]12CC[C@@H](OC)CC2` [Example I-4]?
**A.** Henderson-Tilton efficacy (%) against Aphis craccivora (Aphis craccivora; 7 d after treatment): 100%; Henderson-Tilton efficacy (%) against Aphis craccivora (Aphis craccivora; 14 d after treatment): 84%; Henderson-Tilton efficacy (%) against Aphis craccivora (Aphis craccivora; 22 d after treatment): 100%; Henderson-Tilton efficacy (%) against Aphis craccivora (Aphis craccivora; 35 d after treatment): 100%; Henderson-Tilton efficacy (%) against FRANOC ([1]; 7 d after treatment): 100%; Henderson-Tilton efficacy (%) against FRANOC ([1]; 14 d after treatment): 100%; Henderson-Tilton efficacy (%) against FRANOC ([1]; 21 d after treatment): 90%; Henderson-Tilton efficacy (%) against FRANOC ([1]; 28 d after treatment): 100%; Abbott efficacy (%) against THRIPL (Thrips palmi; 7 d after 2nd treatm.): 64.1%; Abbott efficacy (%) against THRIPL (Thrips palmi; 9 d after 1st treatm.): 66.3%; Abbott efficacy (%) against THRIPL (Thrips palmi; 13 d after 2nd treatm.): 80.0%; Henderson-Tilton efficacy (%) against Bemisia argentifolii ([2]; 9 d after treatment): 99%; Henderson-Tilton efficacy (%) against Bemisia argentifolii ([2]; 13 d after treatment): 100%; Henderson-Tilton efficacy (%) against Bemisia argentifolii ([2]; 20 d after treatment): 98%; Henderson-Tilton efficacy (%) against Bemisia argentifolii ([2]; 34 d after treatment): 100%; Henderson-Tilton efficacy (%) against Bemisia argentifolii ([2]; 41 d after treatment): 100%; Abbott efficacy (%) against TRIAVA ([3]; 14 d after 1st treatment): 26.8%; Abbott efficacy (%) against TRIAVA ([3]; 21 d after 1st treatment): 66.3%; Abbott efficacy (%) against TRIAVA ([3]; 28 d after 1st treatment): 90.4%; Abbott efficacy (%) against TRIAVA ([3]; 36 d after 1st treatment): 95.6%; Abbott efficacy (%) against TRIAVA ([3]; 43 d after 1st treatment): 97.9%; Henderson-Tilton efficacy (%) against Coccus viridis (Coccus viridis; 7 d after treatment): 35%; Henderson-Tilton efficacy (%) against Coccus viridis (Coccus viridis; 15 d after treatment): 45%; Henderson-Tilton efficacy (%) against Coccus viridis (Coccus viridis; 21 d after treatment): 69%; Henderson-Tilton efficacy (%) against Coccus viridis (Coccus viridis; 35 d after treatment): 100%; Abbott efficacy (%) against PSECCI ([4]; 7 d after treatment): 63%; Abbott efficacy (%) against PSECCI ([4]; 14 d after treatment): 91%; Abbott efficacy (%) against PSECCI ([4]; 21 d after treatment): 94%; Abbott efficacy (%) against PSECCI ([4]; 28 d after treatment): 93%; Abbott efficacy (%) against Phenacoccus madeirensis ([5]; 7 d after treatment): 84%; Abbott efficacy (%) against Phenacoccus madeirensis ([5]; 14 d after treatment): 89%; Abbott efficacy (%) against Phenacoccus madeirensis ([5]; 21 d after treatment): 99%; Abbott efficacy (%) against Phenacoccus madeirensis ([5]; 28 d after treatment): 98%; Efficacy (% Abbott) against Bemisia sp. (Bemisia sp.; 7 d after 3rd treatm.): 86.2 % Abbott; Efficacy (% Abbott) against Bemisia sp. (Bemisia sp.; 14 d after 3rd treatm.): 94.4 % Abbott; Efficacy (% Abbott) against Bemisia sp. (Bemisia sp.; 21 d after 3rd treatm.): 94.9 % Abbott; Efficacy (% Abbott) against Bemisia sp. (Bemisia sp.; 28 d after 3rd treatm.): 90.5 % Abbott
